In US10047074B2, “Pharmaceutical compound” (IOmet Pharma Ltd., priority 2014, dated 2018):

Experiments:
Recombinant human TDO = Recombinant human TDO (Homo sapiens, UniProt P48775); assay: hTDO biochemical assay (coupled with formamidase); settings: 330 μM L-tryptophan, coupled with kynurenine formamidase, fluorescence
Method: (§1) Exemplary compounds of the invention were prepared, and tested to determine their effect as TDO and/or IDO inhibitors. Two different assays were employed: 1. a cell-based assay for detecting the effect of test compounds on kynurenine production in two different cancer cell types. This assay utilised cancer cells which expressed either TDO (A172) or IDO (SKOV3) and as such was used as a means of testing compound activity at these two enzymes in a cell-based context. 2. a TDO and IDO biochemical coupled assay which utilised recombinantly produced and purified TDO and IDO enzymes in combination with the enzyme formamidase. This coupled enzyme system allowed conversion of N-formylkynurenine produced by TDO or IDO activity to kynurenine which was then quantified by fluorescence following addition of Erhlich's Reagent The protocols for these are set out below.
(§2) TDO and IDO Biochemical Coupled Assay
(§3) Recombinant human IDO or TDO was incubated in 50 mM KPO4 (pH 7.0), 0.5 mM EGTA, 0.5 mM EDTA, 0.05% Triton™ X100, 20 mM ascorbate, […] methylene blue, 500 U/ml catalase, 50 μg/ml KynB (kynurenine formamidase). TDO assays were carried out in the presence of 330 μM L-tryptophan, while IDO assays had the addition of 45 µM L-tryptophan. After incubation for 17 minutes at room temperature the reactions were stopped by the addition of Erhlich's reagent and incubated at room temperature for 5 minutes before the fluorescence was read (Ex475, Em530).

TDO (A172) = target: T1, TDO (A172) (Homo sapiens, UniProt P48775); assay: A172 Kynurenine cell based assay; settings: A172 human glioblastoma cells expressing TDO; kynurenine production, 48 hours
T1 construct: This assay utilised cancer cells which expressed either TDO (A172) or IDO (SKOV3); endogenous in cells; host or cells: A172 (human glioblastoma)
Method: as §1
(§4) Cell Based Assay for Detection of Kynurenine Produced by TDO and/or IDO
(§5) A172 (human glioblastoma) and SKOV3 (human ovarian adenocarcinoma) cells were seeded in a 96 well plate at 30,000 or 40,000 cells per well respectively in phenol red-free RPMI supplemented with 10% FCS, 2 mM L-glutamine and 500 µM L-tryptophan. IDO expression was induced in the SKOV3 cells by the addition of 500 ng/ml IFN-γ. Cells were incubated at 37° C. with or without the addition of test compound. After 48 hours, the cells were removed by centrifugation and Erhlich's reagent was added to the supernatant. The Erhlich's reagent was incubated for 5 minutes before the absorbance was read at 490 nm.

IDO (SKOV3) = target: T2, IDO (SKOV3) (Homo sapiens, UniProt P14902); assay: SKOV3 Kynurenine cell based assay; settings: SKOV3 human ovarian adenocarcinoma cells, IDO induced by IFN-γ; kynurenine production, 48 hours
T2 construct: IDO expression was induced in the SKOV3 cells by the addition of 500 ng/ml IFN-γ; endogenous in cells; host or cells: SKOV3 (human ovarian adenocarcinoma), IFN-γ induced
Method: as §1, §4
as §5, with “supernatant.” for “supernatant. The Erhlich's reagent was incubated for 5 minutes before the absorbance was read at 490 nm.”

Recombinant human IDO = Recombinant human IDO (Homo sapiens, UniProt P14902); assay: hIDO biochemical assay (coupled with formamidase); settings: coupled with kynurenine formamidase, fluorescence
Method: as §1, §2, §3

T2 sequence (P14902 whole entry): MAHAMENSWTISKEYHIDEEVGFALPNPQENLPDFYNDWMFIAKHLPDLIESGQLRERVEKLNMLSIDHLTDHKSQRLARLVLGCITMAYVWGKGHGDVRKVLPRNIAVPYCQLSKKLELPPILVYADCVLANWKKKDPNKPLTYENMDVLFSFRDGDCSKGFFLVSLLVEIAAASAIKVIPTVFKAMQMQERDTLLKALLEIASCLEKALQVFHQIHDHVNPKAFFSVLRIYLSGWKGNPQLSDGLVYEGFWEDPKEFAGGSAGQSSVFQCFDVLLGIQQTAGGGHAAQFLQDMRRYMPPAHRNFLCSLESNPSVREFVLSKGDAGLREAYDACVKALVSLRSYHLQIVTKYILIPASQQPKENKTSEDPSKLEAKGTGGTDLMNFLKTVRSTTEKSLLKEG
Chain of Recombinant human IDO (P14902 whole entry): as above
Chain of Recombinant human TDO (P48775 whole entry): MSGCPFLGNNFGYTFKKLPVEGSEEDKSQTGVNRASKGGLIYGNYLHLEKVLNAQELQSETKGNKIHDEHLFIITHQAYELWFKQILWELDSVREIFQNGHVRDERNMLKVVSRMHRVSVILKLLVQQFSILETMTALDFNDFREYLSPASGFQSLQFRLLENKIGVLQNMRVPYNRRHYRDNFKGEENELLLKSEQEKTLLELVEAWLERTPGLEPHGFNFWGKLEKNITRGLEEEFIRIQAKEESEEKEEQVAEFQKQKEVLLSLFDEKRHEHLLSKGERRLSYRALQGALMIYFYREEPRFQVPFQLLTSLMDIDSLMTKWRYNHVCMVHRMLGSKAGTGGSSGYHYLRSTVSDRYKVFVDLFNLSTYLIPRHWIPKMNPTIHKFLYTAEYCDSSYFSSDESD
T1 sequence (P48775 whole entry): as above

| Compound | hTDO biochemical assay pIC50 (Recombinant human TDO) | A172 Kynurenine cell based assay pIC50 (TDO (A172)) | SKOV3 Kynurenine cell based assay pIC50 (IDO (SKOV3)) | hIDO biochemical assay pIC50 (Recombinant human IDO) |
| --- | --- | --- | --- | --- |
| Nc1oncc1-c1ccc(F)cc1 [Compound 1] | ++ (++ = pIC50 4.50-5.49) | +++ (+++ = pIC50 ≥ 5.50) | ++ (++ = pIC50 4.50-5.49) | ++ (++ = pIC50 4.50-5.49) |
| Nc1noc(N)c1-c1cccc(Cl)c1 [Compound 5] | + (+ = pIC50 4.00-4.49) | +++ (+++ = pIC50 ≥ 5.50) | ++ (++ = pIC50 4.50-5.49) | ++ (++ = pIC50 4.50-5.49) |
| Nc1oncc1-c1ccccc1 [Compound 7] | ++ (++ = pIC50 4.50-5.49) | +++ (+++ = pIC50 ≥ 5.50) | ++ (++ = pIC50 4.50-5.49) | ++ (++ = pIC50 4.50-5.49) |
| Nc1oncc1-c1cccc(F)c1 [Compound 13] | + (+ = pIC50 4.00-4.49) | +++ (+++ = pIC50 ≥ 5.50) | ++ (++ = pIC50 4.50-5.49) | ++ (++ = pIC50 4.50-5.49) |
| CC(=O)Nc1oncc1-c1ccccc1 [Compound 17] | + (+ = pIC50 4.00-4.49) | ++ (++ = pIC50 4.50-5.49) | + (+ = pIC50 4.00-4.49) | + (+ = pIC50 4.00-4.49) |
| O=S(=O)(Nc1oncc1-c1ccccc1)c1ccccc1 [Compound 26] | +/− (+/− = pIC50 < 4.00) | + (+ = pIC50 4.00-4.49) | ++ (++ = pIC50 4.50-5.49) | +++ (+++ = pIC50 ≥ 5.50) |
| CC(C)C(=O)Nc1oncc1-c1ccccc1 [Compound 34] | ++ (++ = pIC50 4.50-5.49) | ++ (++ = pIC50 4.50-5.49) | ++ (++ = pIC50 4.50-5.49) | ++ (++ = pIC50 4.50-5.49) |
| O=C(Nc1oncc1-c1ccccc1)c1ccccc1 [Compound 49] | + (+ = pIC50 4.00-4.49) | +++ (+++ = pIC50 ≥ 5.50) | ++ (++ = pIC50 4.50-5.49) | +/− (+/− = pIC50 < 4.00) |
| N#Cc1ccc(-c2cnoc2N)cc1 [Compound 50] | – | ++ (++ = pIC50 4.50-5.49) | ++ (++ = pIC50 4.50-5.49) | ++ (++ = pIC50 4.50-5.49) |
| CN(C)C(=O)CCC(=O)Nc1oncc1-c1ccccc1 [Compound 58] | – | ++ (++ = pIC50 4.50-5.49) | + (+ = pIC50 4.00-4.49) | – |
| O=S(=O)(Nc1oncc1-c1ccccc1)c1cccnc1 [Compound 59] | – | +/− (+/− = pIC50 < 4.00) | + (+ = pIC50 4.00-4.49) | – |
| CN(C)C(=O)CNc1oncc1-c1ccccc1 [Compound 60] | – | ++ (++ = pIC50 4.50-5.49) | + (+ = pIC50 4.00-4.49) | – |
| CN1CCCCC1C(=O)Nc1oncc1-c1ccccc1 (centres unmarked) [Compound 61] | – | + (+ = pIC50 4.00-4.49) | +/− (+/− = pIC50 < 4.00) | – |
| O=C(Nc1oncc1-c1ccccc1)c1cccnc1 [Compound 62] | – | ++ (++ = pIC50 4.50-5.49) | ++ (++ = pIC50 4.50-5.49) | – |
| O=C(CO)Nc1oncc1-c1ccccc1 [Compound 63] | +/− (+/− = pIC50 < 4.00) | +++ (+++ = pIC50 ≥ 5.50) | ++ (++ = pIC50 4.50-5.49) | + (+ = pIC50 4.00-4.49) |
| CC(C)(O)C(=O)Nc1oncc1-c1ccccc1 [Compound 64] | – | ++ (++ = pIC50 4.50-5.49) | + (+ = pIC50 4.00-4.49) | – |
| CNC(=O)CCC(=O)Nc1oncc1-c1ccccc1 [Compound 65] | – | +++ (+++ = pIC50 ≥ 5.50) | ++ (++ = pIC50 4.50-5.49) | – |
